From patent US20200045956A1, “POLYPEPTIDE SPERM STABILISER FOR SEMEN USED IN ARTIFICIAL INSEMINATION” (UNIVERSIDAD DE LA FRONTERA, priority 2017, published 2020)

Test system: porcine spermatozoa
Assay: Progressive motility / viability of gametes incubated in fertilizing solution with FB-sp (CASA method, optical microscopy)
Assay type: cell-based
Procedure: A test of the progressive motility of gametes incubated in fertilizing solution added with the FB-sp bio-stabiliser polypeptide was performed. Progressive gametes are spermatozoa that have normal mobility capacity and are suitable for fertilizing.
It can be seen that the incubation of spermatozoa of porcine boars with FB-sp (●) (10 μM) preserves progressive motility up to 85% of spermatozoa for a period of 7 days, while the control (▪) without stabiliser decreases to a value of 70% on day 7, the difference increases over the days.

In the case of “RPGLPVFSPL (Spermatic biostabilizer FB-sp) [polypeptide sperm stabiliser of 10 amino acids: Arg, Pro, Gly, Leu, Pro, Val, Phe, Ser, Pro, Leu]”, the “progressive motility of spermatozoa preserved” value (FB-sp 10 μM, 17° C., period of 7 days, porcine boar spermatozoa) is reported as “up to 85%” and the survival (extender with FB-sp added, after 7 days) is reported as “over 65%”.
